{"source": "paper PMC3101181", "about": "“Crystal Structures of T. b. rhodesiense Adenosine Kinase Complexed with Inhibitor and Activator: Implications for Catalysis and Hyperactivation” (PLoS Neglected Tropical Diseases, 2011)", "key": {"[1]": {"molecular_target": "TbrAK (adenosine kinase of T. b. rhodesiense) (Trypanosoma brucei rhodesiense, UniProt Q584S0)", "sequence (Q584S0 entry or part of it)": "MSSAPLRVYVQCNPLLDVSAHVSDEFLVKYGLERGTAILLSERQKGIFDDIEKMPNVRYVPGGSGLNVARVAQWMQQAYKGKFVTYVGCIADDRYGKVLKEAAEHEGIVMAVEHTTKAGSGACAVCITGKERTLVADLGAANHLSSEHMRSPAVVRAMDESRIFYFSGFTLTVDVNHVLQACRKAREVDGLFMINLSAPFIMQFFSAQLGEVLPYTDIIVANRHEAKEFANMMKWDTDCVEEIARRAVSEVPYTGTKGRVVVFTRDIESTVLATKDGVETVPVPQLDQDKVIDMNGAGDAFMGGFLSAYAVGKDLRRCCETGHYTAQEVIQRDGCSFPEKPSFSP", "experiment": "TbrAK activity assay (HPLC, ADP/ATP ratio)", "format": "biochemical", "conditions": "n.e. = no effect; for potency EC50 (TbrAK activation) / EC50: compound range 1–2000 µM, average of three experiments, neither activator nor inhibitor; for efficacy increase (TbrAK activation): efficacy of TbrAK in absence of compound taken as reference; for EC50: read-out: potency EC50 (TbrAK activation)", "description": "The activation potential of a series of compound 1 derivatives (compounds 2–7) was measured using a recently developed HPLC method. The resulting ADP/ATP ratios were calculated and used as a measure of activity. For comparative reasons the activity recorded in absence of compound was set to 100%. The mean of three independent measurements is reported."}, "TbrAK [2]": {"molecular_target": "T1, TbrAK (Trypanosoma brucei rhodesiense, UniProt Q584S0)", "T1 sequence (Q584S0 entry or part of it)": "as above", "conditions": "ITC; cited from earlier work"}, "[3]": {"set-up": "method as in PMID 19707572, PMID 17949068", "conditions": "cited from earlier work"}, "[4]": {"test_system": "Trypanosoma brucei rhodesiense", "set-up": "method as in PMID 19707572, PMID 17949068", "conditions": "read-out: IC50 towards Trypanosoma brucei rhodesiense; cited from earlier work"}, "TbrAK [5]": {"molecular_target": "T1, TbrAK", "experiment": "Thermal stability assay (thermal unfolding by CD spectroscopy)", "format": "binding", "conditions": "for Tm ± SD: TbrAK 13 µM, apo TbrAK 43.1±0.4, average of three experiments; for increase of TbrAK melting point when compound 1 was added: 50 µM", "description": "Thermal unfolding of TbrAK was studied by CD spectroscopy as outlined elsewhere. […] TbrAK in a buffer containing 20 mM Hepes and 150 mM NaCl (pH 7.0) was kept constant at a final concentration of 0.5 mg/ml (13 µM). […] For evaluation of the CD spectra, the buffer spectrum was subtracted from the protein CD spectrum. All thermal unfolding curves were fitted to a two-state model that had been published recently. The mean of three independent experiments is reported."}, "TbrAK [6]": {"molecular_target": "T1, TbrAK", "experiment": "Isothermal titration calorimetry (ITC)", "format": "binding", "description": "Binding affinity constants for adenosine and ATP were determined using isothermal titration calorimetry (ITC). To this end, TbrAK was dialyzed into a buffer consisting of 20 mM Tris, 150 mM NaCl, and 5% glycerol (pH 7.5) and used at concentrations around 90 µM. The ligands were dissolved directly into the dialysis buffer to give a final concentration of around 2 mM. All solutions were filtered and thoroughly degassed before use. A typical titration experiment consisted of a first control injection of 1 µl followed by 50 to 60 injections, each of 5 µl (20 s duration), using a 4 min interval. Raw data were collected, corrected for ligand heats of dilution, integrated and fitted to the appropriate binding model using the Microcal Origin software supplied with the instrument. The measurements were performed in duplicate."}, "[7]": {"conditions": "AP5A, adenosine, ATP at 500 µM, compound 1 at 50 µM"}}, "note": "“Also recorded” adds a separate entry of the source. Read-outs that look alike come from different tables or passages of the source.", "data": [{"smiles": "O=[N+]([O-])c1ccc(Oc2ccc(-c3cc(N4CCOCC4)[nH]n3)cc2)cc1", "note": "[compound 7, 4-{5-[4-(4-nitrophenoxy)phenyl]-2H-pyrazol-3-yl}morpholine]", "values": [{"measurement": "potency EC50 (TbrAK activation)", "setting": "[1]", "result": "n.e."}, {"measurement": "efficacy increase (TbrAK activation)", "setting": "[1]", "result": "loses all activation capacity; also recorded: n.e. ^c"}]}, {"smiles": "c1ccc(Oc2ccc(-c3cc(N4CCOCC4)on3)cc2)cc1", "note": "[compound 6, 4-[3-(4-phenoxyphenyl)isoxazol-5-yl]morpholine]", "values": [{"measurement": "potency EC50 (TbrAK activation)", "setting": "[1]", "result": "n.e. ^c"}, {"measurement": "efficacy increase (TbrAK activation)", "setting": "[1]", "result": "loses all activation capacity; also recorded: n.e. ^c"}]}, {"smiles": "c1ccc(Oc2ccc(-c3cc(C4CCOCC4)[nH]n3)cc2)cc1", "note": "[compound 2, 3-(4-phenoxyphenyl)-5-(tetrahydropyran-4-yl)-1H-pyrazole]", "values": [{"measurement": "EC50", "setting": "[1]", "result": 25.4, "unit": "µM"}, {"measurement": "efficacy increase (TbrAK activation)", "setting": "[1]", "result": 2.0, "unit": "fold"}]}, {"smiles": "c1ccc(Oc2ccc(-c3cc(N4CCOCC4)[nH]n3)cc2)cc1", "note": "[compound 1, 4-[5-(4-phenoxyphenyl)-2H-pyrazol-3-yl]morpholine]", "values": [{"measurement": "efficacy increase (TbrAK activation)", "setting": "[1]", "result": 3.5, "unit": "fold"}, {"measurement": "number of binding sites on TbrAK", "setting": "TbrAK [2]", "result": "two binding sites"}, {"measurement": "cytotoxicity", "setting": "[3]", "result": "low cytotoxicity"}, {"measurement": "IC50", "setting": "[4]", "result": 1000, "unit": "nM"}, {"measurement": "Tm ± SD", "setting": "TbrAK [5]; [7]", "result": "47.9±0.1", "unit": "°C"}, {"measurement": "increase of TbrAK melting point when compound 1 was added", "setting": "TbrAK [5]; in presence of adenosine", "result": 0.4, "unit": "°C"}, {"measurement": "increase of TbrAK melting point when compound 1 was added", "setting": "TbrAK [5]; in presence of both adenosine and ATP", "result": 0.7, "unit": "°C"}]}, {"smiles": "CCc1ccc(-c2cc(C3CCOCC3)[nH]n2)cc1", "note": "[compound 3, 3-(4-ethylphenyl)-5-(tetrahydropyran-4-yl)-1H-pyrazole]", "values": [{"measurement": "EC50", "setting": "[1]", "result": 168, "unit": "µM"}, {"measurement": "efficacy increase (TbrAK activation)", "setting": "[1]", "result": 2.5, "unit": "fold"}]}, {"smiles": "c1ccc(Oc2ccc(-c3cc(CN4CCOCC4)[nH]n3)cc2)cc1", "note": "[compound 5, 4-[5-(4-phenoxyphenyl)-2H-pyrazol-3-ylmethyl]morpholine]", "values": [{"measurement": "EC50", "setting": "[1]", "result": 195, "unit": "µM"}, {"measurement": "efficacy increase (TbrAK activation)", "setting": "[1]", "result": 1.5, "unit": "fold"}]}, {"smiles": "Nc1ncnc2c1ncn2[C@@H]1O[C@H](COP(=O)(O)OP(=O)(O)OP(=O)(O)O)[C@@H](O)[C@H]1O", "note": "[ATP, adenosine triphosphate]", "values": [{"measurement": "Tm ± SD", "setting": "TbrAK [5]; [7]", "result": "42.8±0.1", "unit": "°C"}]}, {"smiles": "Nc1ncnc2c1ncn2[C@@H]1O[C@H](COP(=O)(O)OP(=O)(O)OP(=O)(O)OP(=O)(O)OP(=O)(O)OC[C@H]2O[C@@H](n3cnc4c(N)ncnc43)[C@H](O)[C@@H]2O)[C@@H](O)[C@H]1O", "note": "[AP5A, P^1,P^5-di(adenosine-5′)-pentaphosphate]", "values": [{"measurement": "Tm ± SD", "setting": "TbrAK [5]; [7]", "result": "50.5±0.2", "unit": "°C"}, {"measurement": "Δ Tm", "setting": "TbrAK [5]; shift versus apo TbrAK (43.1°C), AP5A, adenosine, ATP at 500 µM, compound 1 at 50 µM", "result": 7.4, "unit": "°C"}]}, {"smiles": "Nc1ncnc2c1ncn2[C@@H]1O[C@H](CO)[C@@H](O)[C@H]1O", "note": "[adenosine]", "values": [{"measurement": "Kd", "setting": "TbrAK [6]", "result": "1.3 ± 0.3", "unit": "µM"}, {"measurement": "n (molar ratio, single site)", "setting": "TbrAK [6]; in presence of compound 1 (150 µM)", "result": "0.9±0.1"}, {"measurement": "ΔHbind, single binding site", "setting": "TbrAK [6]; in presence of compound 1 (150 µM), single-site binding model", "result": "-15.5 ± 0.2", "unit": "kcal/mol"}, {"measurement": "Kd", "setting": "TbrAK [6]; read-out: KD, low affinity binding site, two-sites non-interacting binding model, mean of two experiments", "result": "27.6 ± 1.1", "unit": "µM"}, {"measurement": "n1 (molar ratio, high affinity site)", "setting": "TbrAK [6]; two-sites model", "result": "0.9±0.1"}, {"measurement": "n2 (molar ratio, low affinity site)", "setting": "TbrAK [6]; two-sites model", "result": "0.8±0.1"}, {"measurement": "Tm ± SD", "setting": "TbrAK [5]; [7]", "result": "50.7±0.2", "unit": "°C"}]}, {"smiles": "Clc1ccc(-c2cc(N3CCOCC3)[nH]n2)cc1", "note": "[compound 4, 4-[5-(4-chlorophenyl)-2H-pyrazol-3-yl]morpholine]", "values": [{"measurement": "EC50", "setting": "[1]", "result": 135, "unit": "µM"}, {"measurement": "efficacy increase (TbrAK activation)", "setting": "[1]", "result": 2.0, "unit": "fold"}]}]}
